The source made the active and inactive calls. The rule behind the calls is not given here.
Assays:
[1] = target: Muscarinic acetylcholine receptor M3 (Homo sapiens) (UniProt P20309); conditions: Compound concentration 10.0 uM
[2] = target: Mitogen-activated protein kinase 12 (Homo sapiens) (UniProt P53778); experiment: Inhibition of SAPK3(h) at 10.0 µM in the Eurofins Kinase panel; conditions: Compound concentration 10.0 uM
[3] = target: Tyrosine-protein kinase Srms (Homo sapiens) (UniProt Q9H3Y6); experiment: Inhibition of SRMS(h) at 10.0 µM in the Eurofins Kinase panel; conditions: Compound concentration 10.0 uM
[4] = target: Serine-protein kinase ATM (Homo sapiens) (UniProt Q13315); experiment: Inhibition of ATM(h) at 10.0 µM in the Eurofins Kinase panel; conditions: Compound concentration 10.0 uM
[5] = target: Rhodopsin kinase GRK1 (Homo sapiens) (UniProt Q15835); experiment: Inhibition of GRK1(h) at 10.0 µM in the Eurofins Kinase panel; conditions: Compound concentration 10.0 uM
[6] = target: Non-receptor tyrosine-protein kinase TYK2 (Homo sapiens) (UniProt P29597); experiment: Inhibition of TYK2(h) at 10.0 µM in the Eurofins Kinase panel; conditions: Compound concentration 10.0 uM
[7] = target: Fibroblast growth factor receptor 1 (Homo sapiens) (UniProt P11362); experiment: Inhibition of FGFR1(h) at 10.0 µM in the Eurofins Kinase panel; conditions: Compound concentration 10.0 uM
[8] = target: Serine/threonine-protein kinase 25 (Homo sapiens) (UniProt O00506); experiment: Inhibition of STK25(h) at 10.0 µM in the Eurofins Kinase panel; conditions: Compound concentration 10.0 uM
[9] = target: BMP-2-inducible protein kinase (Homo sapiens) (UniProt Q9NSY1); experiment: Inhibition of BIKe(h) at 10.0 µM in the Eurofins Kinase panel; conditions: Compound concentration 10.0 uM
[10] = target: T1, Muscarinic acetylcholine receptor M2 (Homo sapiens) (UniProt P08172); conditions: Compound concentration 10.0 uM
T1 sequence (whole entry): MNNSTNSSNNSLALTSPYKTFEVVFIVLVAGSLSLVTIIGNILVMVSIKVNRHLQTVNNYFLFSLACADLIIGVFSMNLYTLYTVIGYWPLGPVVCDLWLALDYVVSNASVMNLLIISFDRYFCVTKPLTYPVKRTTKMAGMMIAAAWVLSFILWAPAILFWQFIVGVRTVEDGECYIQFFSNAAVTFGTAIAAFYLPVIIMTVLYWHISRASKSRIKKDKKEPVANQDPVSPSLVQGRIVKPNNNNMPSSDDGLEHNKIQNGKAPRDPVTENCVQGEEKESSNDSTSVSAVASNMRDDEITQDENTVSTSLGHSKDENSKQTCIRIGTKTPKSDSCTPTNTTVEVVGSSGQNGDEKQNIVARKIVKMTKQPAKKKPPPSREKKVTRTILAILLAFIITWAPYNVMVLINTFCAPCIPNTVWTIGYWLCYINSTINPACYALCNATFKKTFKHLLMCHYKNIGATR

[11] = target: Serine/threonine-protein kinase Nek9 (Homo sapiens) (UniProt Q8TD19); experiment: Inhibition of NEK9(h) at 10.0 µM in the Eurofins Kinase panel; conditions: Compound concentration 10.0 uM
[12] = target: Beta-2 adrenergic receptor (Homo sapiens) (UniProt P07550); conditions: Compound concentration 10.0 uM
[13] = target: Serine/threonine-protein kinase WNK4 (Homo sapiens) (UniProt Q96J92); experiment: Inhibition of WNK4(h) at 10.0 µM in the Eurofins Kinase panel; conditions: Compound concentration 10.0 uM
[14] = target: RAF proto-oncogene serine/threonine-protein kinase (Homo sapiens) (UniProt P04049); experiment: Inhibition of c-RAF(h) at 10.0 µM in the Eurofins Kinase panel; conditions: Compound concentration 10.0 uM
[15] = target: Protein kinase C iota type (Homo sapiens) (UniProt P41743); experiment: Inhibition of PKCiota(h) at 10.0 µM in the Eurofins Kinase panel; conditions: Compound concentration 10.0 uM
[16] = target: Protein kinase C zeta type (Homo sapiens) (UniProt Q05513); experiment: Inhibition of PKCzeta(h) at 10.0 µM in the Eurofins Kinase panel; conditions: Compound concentration 10.0 uM
[17] = target: Tau-tubulin kinase 2 (Homo sapiens) (UniProt Q6IQ55); experiment: Inhibition of TTBK2(h) at 10.0 µM in the Eurofins Kinase panel; conditions: Compound concentration 10.0 uM
[18] = target: Ribosomal protein S6 kinase beta-2 (Homo sapiens) (UniProt Q9UBS0); experiment: Inhibition of p70S6Kbeta(h) at 10.0 µM in the Eurofins Kinase panel; conditions: Compound concentration 10.0 uM
[19] = target: Mitogen-activated protein kinase kinase kinase 3 (Homo sapiens) (UniProt Q99759); experiment: Inhibition of MEKK3(h) at 10.0 µM in the Eurofins Kinase panel; conditions: Compound concentration 10.0 uM
[20] = target: Serine/threonine-protein kinase NLK (Homo sapiens) (UniProt Q9UBE8); experiment: Inhibition of NLK (h) at 10.0 µM in the Eurofins Kinase panel; conditions: Compound concentration 10.0 uM
[21] = target: Rho-associated protein kinase 1 (Homo sapiens) (UniProt Q13464); experiment: Inhibition of ROCK-I(h) at 10.0 µM in the Eurofins Kinase panel; conditions: Compound concentration 10.0 uM
[22] = target: Vasopressin V1a receptor (Homo sapiens, UniProt P37288); experiment: Inhibition of Vasopressin V1A at 10.0 µM in the Eurofins-Panlabs selectivity screen
[23] = target: Serine/threonine-protein kinase PLK1 (Homo sapiens) (UniProt P53350); experiment: Inhibition of Plk1(h) at 10.0 µM in the Eurofins Kinase panel; conditions: Compound concentration 10.0 uM
[24] = target: Serine/threonine-protein kinase PLK3 (Homo sapiens) (UniProt Q9H4B4); experiment: Inhibition of Plk3(h) at 10.0 µM in the Eurofins Kinase panel; conditions: Compound concentration 10.0 uM
[25] = target: Vascular endothelial growth factor receptor 3 (Homo sapiens) (UniProt P35916); experiment: Inhibition of Flt4(h) at 10.0 µM in the Eurofins Kinase panel; conditions: Compound concentration 10.0 uM
[26] = target: T2, Alpha-2C adrenergic receptor (Homo sapiens) (UniProt P18825); conditions: Compound concentration 10.0 uM
T2 sequence (whole entry): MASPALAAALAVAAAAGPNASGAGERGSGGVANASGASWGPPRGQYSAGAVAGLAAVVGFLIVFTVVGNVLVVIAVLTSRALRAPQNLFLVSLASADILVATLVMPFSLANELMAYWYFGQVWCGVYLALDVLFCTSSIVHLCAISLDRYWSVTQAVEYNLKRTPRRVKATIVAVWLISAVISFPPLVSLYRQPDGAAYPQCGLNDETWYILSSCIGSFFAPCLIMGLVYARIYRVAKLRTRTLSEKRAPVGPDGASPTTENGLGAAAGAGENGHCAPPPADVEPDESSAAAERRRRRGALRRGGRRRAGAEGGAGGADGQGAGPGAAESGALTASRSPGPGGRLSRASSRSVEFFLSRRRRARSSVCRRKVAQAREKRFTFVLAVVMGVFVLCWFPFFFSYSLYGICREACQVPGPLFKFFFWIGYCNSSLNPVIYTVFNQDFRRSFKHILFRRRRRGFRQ

[27] = target: Ephrin type-A receptor 4 (Homo sapiens) (UniProt P54764); experiment: Inhibition of EphA4(h) at 10.0 µM in the Eurofins Kinase panel; conditions: Compound concentration 10.0 uM
[28] = target: Protein kinase C alpha type (Homo sapiens) (UniProt P17252); experiment: Inhibition of PKCalpha(h) at 10.0 µM in the Eurofins Kinase panel; conditions: Compound concentration 10.0 uM

Chain of Serine/threonine-protein kinase 25 (Homo sapiens) (O00506 whole entry, looked up): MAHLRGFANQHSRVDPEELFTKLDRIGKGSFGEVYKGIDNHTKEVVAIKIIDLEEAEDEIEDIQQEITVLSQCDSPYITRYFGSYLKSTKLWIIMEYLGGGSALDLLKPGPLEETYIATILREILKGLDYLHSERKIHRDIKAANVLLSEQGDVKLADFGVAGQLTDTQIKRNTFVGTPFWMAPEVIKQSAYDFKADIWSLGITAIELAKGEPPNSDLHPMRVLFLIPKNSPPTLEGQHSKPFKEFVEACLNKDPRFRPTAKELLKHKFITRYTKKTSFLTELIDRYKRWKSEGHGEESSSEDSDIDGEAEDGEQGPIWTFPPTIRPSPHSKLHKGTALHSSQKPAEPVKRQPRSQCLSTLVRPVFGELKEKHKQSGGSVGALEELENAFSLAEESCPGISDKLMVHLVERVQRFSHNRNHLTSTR
Chain of Vasopressin V1a receptor (P37288 whole entry): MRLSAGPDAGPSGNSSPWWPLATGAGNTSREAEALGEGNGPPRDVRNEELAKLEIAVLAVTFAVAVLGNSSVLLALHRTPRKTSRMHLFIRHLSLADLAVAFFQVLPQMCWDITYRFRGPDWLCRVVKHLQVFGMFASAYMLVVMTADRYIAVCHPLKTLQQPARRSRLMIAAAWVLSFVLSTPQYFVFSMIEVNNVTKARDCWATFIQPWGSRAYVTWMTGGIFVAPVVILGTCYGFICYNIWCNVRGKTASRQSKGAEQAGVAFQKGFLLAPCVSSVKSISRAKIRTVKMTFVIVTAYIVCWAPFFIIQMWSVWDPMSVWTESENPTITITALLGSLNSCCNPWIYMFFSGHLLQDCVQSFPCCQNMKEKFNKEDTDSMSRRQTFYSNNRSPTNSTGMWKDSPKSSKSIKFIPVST
Chain of Serine/threonine-protein kinase PLK3 (Homo sapiens) (Q9H4B4 whole entry, looked up): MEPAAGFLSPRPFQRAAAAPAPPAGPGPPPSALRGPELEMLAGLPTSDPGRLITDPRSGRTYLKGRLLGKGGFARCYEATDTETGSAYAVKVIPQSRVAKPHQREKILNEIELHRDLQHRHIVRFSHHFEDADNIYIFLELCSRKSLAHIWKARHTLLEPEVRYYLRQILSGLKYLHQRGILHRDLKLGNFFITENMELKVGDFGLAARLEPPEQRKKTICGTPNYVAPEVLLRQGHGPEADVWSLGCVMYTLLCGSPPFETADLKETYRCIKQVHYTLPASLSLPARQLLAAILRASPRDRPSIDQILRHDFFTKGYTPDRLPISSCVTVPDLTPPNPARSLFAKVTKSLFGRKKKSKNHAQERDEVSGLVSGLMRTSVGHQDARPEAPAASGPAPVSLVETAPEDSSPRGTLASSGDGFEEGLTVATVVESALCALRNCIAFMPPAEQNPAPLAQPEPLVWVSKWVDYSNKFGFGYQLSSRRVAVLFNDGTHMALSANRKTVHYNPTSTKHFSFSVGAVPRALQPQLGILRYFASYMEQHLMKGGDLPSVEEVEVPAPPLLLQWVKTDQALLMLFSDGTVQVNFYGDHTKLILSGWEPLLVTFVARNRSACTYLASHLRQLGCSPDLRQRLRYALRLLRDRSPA
Chain of Tyrosine-protein kinase Srms (Homo sapiens) (Q9H3Y6 whole entry): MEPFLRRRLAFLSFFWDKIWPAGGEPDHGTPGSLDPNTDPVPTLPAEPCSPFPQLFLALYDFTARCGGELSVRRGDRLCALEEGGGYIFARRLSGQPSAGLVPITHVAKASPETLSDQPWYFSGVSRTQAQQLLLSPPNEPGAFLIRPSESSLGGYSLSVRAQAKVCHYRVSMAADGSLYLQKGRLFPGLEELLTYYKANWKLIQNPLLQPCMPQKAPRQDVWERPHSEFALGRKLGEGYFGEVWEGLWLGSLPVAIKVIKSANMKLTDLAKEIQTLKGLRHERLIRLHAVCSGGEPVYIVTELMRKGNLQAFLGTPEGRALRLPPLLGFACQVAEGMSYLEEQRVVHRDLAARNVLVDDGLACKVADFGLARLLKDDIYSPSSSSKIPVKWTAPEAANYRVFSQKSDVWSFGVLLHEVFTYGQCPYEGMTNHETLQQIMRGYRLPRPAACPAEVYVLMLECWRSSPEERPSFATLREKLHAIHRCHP
Chain of Serine/threonine-protein kinase Nek9 (Homo sapiens) (Q8TD19 whole entry): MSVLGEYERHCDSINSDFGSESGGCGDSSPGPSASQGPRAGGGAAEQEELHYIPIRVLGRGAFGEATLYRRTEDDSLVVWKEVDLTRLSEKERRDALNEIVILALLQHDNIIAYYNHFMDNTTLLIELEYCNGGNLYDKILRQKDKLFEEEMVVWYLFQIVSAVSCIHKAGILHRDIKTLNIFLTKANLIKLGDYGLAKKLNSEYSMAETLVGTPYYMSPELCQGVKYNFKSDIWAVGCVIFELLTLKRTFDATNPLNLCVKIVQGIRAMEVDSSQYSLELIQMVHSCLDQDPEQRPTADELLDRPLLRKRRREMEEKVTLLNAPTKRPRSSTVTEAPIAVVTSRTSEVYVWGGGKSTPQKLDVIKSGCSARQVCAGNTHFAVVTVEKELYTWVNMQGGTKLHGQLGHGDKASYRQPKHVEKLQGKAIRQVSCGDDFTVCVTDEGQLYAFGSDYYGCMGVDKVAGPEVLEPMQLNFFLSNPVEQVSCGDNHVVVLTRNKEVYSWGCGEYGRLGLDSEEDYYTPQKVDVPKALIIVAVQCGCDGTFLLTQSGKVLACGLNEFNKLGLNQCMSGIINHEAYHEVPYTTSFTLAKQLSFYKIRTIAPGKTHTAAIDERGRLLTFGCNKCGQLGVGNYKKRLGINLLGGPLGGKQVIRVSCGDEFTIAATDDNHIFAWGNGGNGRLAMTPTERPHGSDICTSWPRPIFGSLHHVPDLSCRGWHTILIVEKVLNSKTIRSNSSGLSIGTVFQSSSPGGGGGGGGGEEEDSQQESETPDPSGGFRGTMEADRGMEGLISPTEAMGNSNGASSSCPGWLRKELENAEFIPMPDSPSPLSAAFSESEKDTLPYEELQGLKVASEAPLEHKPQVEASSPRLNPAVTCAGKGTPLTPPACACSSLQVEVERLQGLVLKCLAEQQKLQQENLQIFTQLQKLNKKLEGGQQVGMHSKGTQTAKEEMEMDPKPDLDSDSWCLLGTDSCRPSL
Chain of Vascular endothelial growth factor receptor 3 (Homo sapiens) (P35916 whole entry): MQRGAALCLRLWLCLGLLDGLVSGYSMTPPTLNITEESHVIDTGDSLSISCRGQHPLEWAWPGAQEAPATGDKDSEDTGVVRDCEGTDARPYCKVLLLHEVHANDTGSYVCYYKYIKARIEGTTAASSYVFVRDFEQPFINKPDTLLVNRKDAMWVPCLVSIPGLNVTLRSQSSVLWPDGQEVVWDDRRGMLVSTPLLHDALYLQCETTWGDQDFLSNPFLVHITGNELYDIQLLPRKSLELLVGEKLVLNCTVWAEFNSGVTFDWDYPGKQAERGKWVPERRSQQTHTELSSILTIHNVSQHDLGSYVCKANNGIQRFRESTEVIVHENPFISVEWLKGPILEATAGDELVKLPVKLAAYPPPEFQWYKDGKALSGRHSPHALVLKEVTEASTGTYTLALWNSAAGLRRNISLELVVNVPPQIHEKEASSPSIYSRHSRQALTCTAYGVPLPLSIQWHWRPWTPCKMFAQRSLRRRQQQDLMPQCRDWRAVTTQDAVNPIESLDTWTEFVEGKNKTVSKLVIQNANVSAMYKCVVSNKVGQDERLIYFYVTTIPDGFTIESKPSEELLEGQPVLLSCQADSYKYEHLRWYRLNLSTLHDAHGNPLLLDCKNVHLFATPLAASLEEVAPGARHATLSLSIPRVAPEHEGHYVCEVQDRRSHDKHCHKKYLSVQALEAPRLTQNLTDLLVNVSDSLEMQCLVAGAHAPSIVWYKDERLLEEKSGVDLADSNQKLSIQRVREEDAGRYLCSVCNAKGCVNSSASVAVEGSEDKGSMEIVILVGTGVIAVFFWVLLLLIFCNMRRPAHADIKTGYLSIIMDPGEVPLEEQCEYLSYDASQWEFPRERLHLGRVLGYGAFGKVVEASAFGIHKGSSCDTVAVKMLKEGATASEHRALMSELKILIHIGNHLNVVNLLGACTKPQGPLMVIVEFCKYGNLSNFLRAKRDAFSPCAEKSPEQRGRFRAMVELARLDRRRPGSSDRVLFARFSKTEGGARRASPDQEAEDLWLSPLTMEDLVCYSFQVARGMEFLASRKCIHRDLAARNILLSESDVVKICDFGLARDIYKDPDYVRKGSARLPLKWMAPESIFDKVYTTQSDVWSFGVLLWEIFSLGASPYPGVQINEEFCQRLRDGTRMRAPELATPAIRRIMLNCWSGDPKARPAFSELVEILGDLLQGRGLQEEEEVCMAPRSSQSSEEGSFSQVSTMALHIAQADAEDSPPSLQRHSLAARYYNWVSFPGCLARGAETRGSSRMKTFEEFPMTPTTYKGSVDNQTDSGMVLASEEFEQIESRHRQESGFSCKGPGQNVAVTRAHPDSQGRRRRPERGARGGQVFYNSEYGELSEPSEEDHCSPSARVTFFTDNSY

| SMILES | inhibition [1] | inhibition [2] | inhibition [3] | inhibition [4] | inhibition [5] | inhibition [6] | inhibition [7] | inhibition [8] | inhibition [9] | inhibition [10] | inhibition [11] | inhibition [12] | inhibition [13] | inhibition [14] | inhibition [15] | inhibition [16] | inhibition [17] | inhibition [18] | inhibition [19] | inhibition [20] | other results |
| --- | --- | --- | --- | --- | --- | --- | --- | --- | --- | --- | --- | --- | --- | --- | --- | --- | --- | --- | --- | --- | --- |
| O=c1n(Cc2cncn2-c2cccc(Cl)c2)nc(-c2ccc(Cl)cc2)n1C[C@H](O)C(F)(F)F | 4% | -3.96% | 4.78% | -1.92% | -8.45% | 5.83% | -0.06% | 6.35% | -1.55% | 17% | 9.43% | 0% | 2.45% | -1.49% | 0.21% | 8.34% | -2.08% | 3.66% | 7.5% | -1.74% | inhibition [21]: -3.19%; Ki [22]: > 10 µM (not active); inhibition [23]: -0.49%; inhibition [24]: -0.3%; inhibition [25]: 11.3%; inhibition [26]: -9.85%; inhibition [27]: 0.23%; inhibition [28]: 2.18% |
| C[C@H](O)c1nc(Cn2nc(-c3ccc(Cl)cc3)n(C[C@H](O)C(F)(F)F)c2=O)nn1-c1cccc(Cl)c1 [PECAVAPTAN] | 8% | -0.09% | 7.11% | 1.99% | 6.58% | 8.75% | 1.76% | 9.04% | -0.71% | 7% | 7.88% | 9% | 10.5% | -1.46% | -3.93% | 18.7% | -8.61% | 1.85% | 2.27% | -2.51% | inhibition [21]: -2.67%; Ki [22]: 0.0005 µM (active); inhibition [23]: -2.91%; inhibition [24]: 0.49%; inhibition [25]: 4.21%; inhibition [26]: -2.74%; inhibition [27]: -0.37%; inhibition [28]: 1.13% |
